Laboratory results reported in US20240262812A1, “N-SUBSTITUTED PHENYLSULFONAMIDE COMPOUND AND USE THEREOF” (Shanghai Leado Pharmatech Co., Ltd., priority 2021, published 2024).

Tests used:
[1] = system: DNBS, TNBS, or DSS induced colitis; conditions: administration of selective TRPA1 inhibitor; background; cited from earlier work
[2] = system: acute gastric mucosal injury; conditions: background; cited from earlier work
[3] = system: DNBS induced colitis in Wistar rats; experiment: DNBS induced colitis model in Wistar rats; assay type: in vivo, rat; design: Degree of adhesion (score) / Degree of intestinal infarction (score) / Severity of ulcer (score) / Degree of intestinal wall thickening (score) / Macroscopic colon score: scale not given here; conditions: oral once a day Day 0 to Day 6, compounds 10 mg/kg, osalazine sodium 300 mg/kg
Source text: The therapeutic effect of compounds prepared in some examples of the present invention on 2,4-dinitrobenzenesulfonic acid (DNBS) induced ulcerative colitis in Wistar rats (corresponding to Crohn's disease) was investigated.
• Animal species and strains: Wistar rats • Administration record: No administration history • Gender and weight: Male, about 150 g • Breeding party/supplier: Shanghai SLAC Laboratory Animal Co., Ltd • Adaptation period: 5 days • Room: Regular Area Rooms • Indoor temperature: 20-26° C. • Indoor relative humidity: 40-70% • Lighting: Fluorescent lighting, 12-hour illumination (08:00-20:00) and 12-hour no illumination • Animal feeding: 2-4 rats per cage (same administration group) • Food: Unlimited access to feed (disinfected by irradiation, Jiangsu Xietong Pharmaceutical Bio-engineering Co., Ltd., China) • Water: Unlimited access to drinking water (treated with reverse osmosis and high-pressure sterilization)
A total of 80 Wistar rats were purchased from Shanghai SLAC Laboratory Animal Co., Ltd, of which 10 were used as backup animals to select animals with suitable weight range included in the groups, in order to control the fluctuation of disease severity caused by weight fluctuations.
BioBook software was used to screen 70 animals for random grouping based on animal weight to ensure that the weight values of each group of animals were similar to reduce bias.
3.1 DNBS powder was dissolved in 30% ethanol with a final concentration of 60 mg/mL.
3.2 Induction of colorectal inflammation: Before the experiment, rats were fasted for 40 hours and subcutaneously injected with 5% glucose saline during the fasting period. On the day 0 of the experiment, fasting rats were anesthetized by intraperitoneal injection of Zoletil and 5 mg/kg Xylazine. G2 group-G7 group, a hose was extended from the anus to the left curvature of the colorectum, and colorectal inflammation in rats was induced with DNBS enema. The normal control group (G1) was treated with 30% ethanol enema using the same method.
3.3. Dosage regimen: After DNBS induction in G1 and G2 groups of animals, solvent was administered. After DNBS induction in G3 group, 300 mg/kg of oxalazine sodium was administered. After DNBS induction in G4 to G7 groups, 10 mg/kg of the compounds of the present invention were administered respectively. Please refer to Table 3 for the administration time, specific administration dosage, and administration route. Starting from day 0 of modeling, the drugs were administered continuously for 7 days, and the animals were euthanized on day 6.
3.4 Testing indicators: After the experiment, all animals were euthanized by inhaling excessive CO2 and dislocation of cervical vertebra. After the abdominal cavity was cut open, the colorectum was taken out and the length of it was immediately measured. Then the colorectum was longitudinally cut open and rinsed clean. The weight of the colorectum and the area of the ulcer were recorded and the whole was photographed. At the same time, the damage to the rat colorectum was evaluated macroscopically according to Table 4.
The health status of animals and their comprehensive response to surgery and medication were observed every day.
The experimental data was calculated as mean±standard error. Statistical analysis was performed using Graphpad Prism, SPSS, or Sigmaplot software. The specific data is presented in the form of charts. P<0.05 is considered to have statistical differences.

## CC(C)c1ccc(NC(=O)Cn2cnc3c2c(=O)n(C)c(=O)n3C)cc1 [HC-030031, HC030031]
[1]
  symptom of colitis in animals: significantly alleviated the symptom of colitis in animals
[2]
  result in rat model of acute gastric mucosal injury: showed positive result

## O=C([O-])c1cc(/N=N/c2ccc(O)c(C(=O)[O-])c2)ccc1O.[Na+].[Na+] [osalazine sodium, reference compound]
[3]; mean score per Table 4
  Degree of adhesion (score): 0.00
  Degree of intestinal infarction (score): 0.00
  Degree of intestinal wall thickening (score): 0.40
  Severity of ulcer (score): 1.50
[3]; mean total score
  Macroscopic colon score: 1.90
[3]; mean
  Colon length: 14.33 cm
  Colon weight: 1.41 g
  Ulcer area: 0.30 cm^2
  Ulcer length: 0.71 cm
  Ulcer width: 0.34 cm

## O=C([O-])c1cc(/N=N/c2ccc(O)c(C(=O)[O-])c2)ccc1O.[Na+].[Na+] [oxalazine sodium, reference compound]
[3]; mean
  Colon weight: significantly reduce
  Ulcer area: significantly reduce
